Data: ChEMBL document CHEMBL5042513, “Discovery of 2H-chromone-4-one based sulfonamide derivatives as potent retinoic acid receptor-related orphan receptor γt inverse agonists” (Eur J Med Chem, 2022)

Tested on: not listed separately
Experiment: Lipophilicity, logD of the compound at pH 7.4
Settings: buffer

Row | logD | SMILES
1 | 4.84 | CCc1ccc(N(CC(C)C)S(=O)(=O)c2ccc(OCC3CCOCC3)c3c2CCCC3=O)cc1
2 | 3.5 | CC(C)CN(c1cccc(F)c1)S(=O)(=O)c1ccc2c(c1)C(=O)CC(C1CCOCC1)O2 (stereo not drawn)
3 | 3.31 | CCc1ccc(N(CC(C)C)S(=O)(=O)c2ccc3c(c2)C(=O)CC(C2CCN(S(C)(=O)=O)CC2)O3)cc1 (stereo not drawn)
4 | 4.1 | CCc1ccc(N(CC2CCC2)S(=O)(=O)c2ccc3c(c2)C(=O)CC(C2CCOCC2)O3)cc1 (stereo not drawn)
5 | 3.16 | CC(C)CN(c1ccc(C#N)cc1)S(=O)(=O)c1ccc2c(c1)C(=O)CC(C1CCOCC1)O2 (stereo not drawn)
6 | 5.02 | CCc1ccc(N(CC(C)C)S(=O)(=O)c2ccc3c(c2)C(F)CC(C2CCOCC2)O3)cc1 (stereo not drawn)
7 | 5.1 | CCc1ccc(N(CC(C)C)S(=O)(=O)c2ccc3c(c2)C(=O)CC(C2CCN(C(=O)OC(C)(C)C)CC2)O3)cc1 (stereo not drawn)
8 | 4.84 | CCc1ccc(N(Cc2ccccc2)S(=O)(=O)c2ccc3c(c2)C(=O)CC(C2CCOCC2)O3)cc1 (stereo not drawn)
9 | 6.34 | CCc1ccc(N(CC(C)C)S(=O)(=O)c2ccc3cc(OCC4CCOCC4)c(C(=O)OCC4CCOCC4)cc3c2)cc1
10 | 4.53 | CCc1ccc(N(CC(C)C)S(=O)(=O)c2ccc3c(c2)C(=O)CC(CC2CCOCC2)O3)cc1 (stereo not drawn)
11 | 0.32 | CCS(=O)(=O)c1ccc(CNS(=O)(=O)c2ccc3c(c2)C(=O)CC(C2CCOCC2)O3)nc1 (stereo not drawn)
12 | 4.75 | CCc1ccc(N(CC(C)C)S(=O)(=O)c2ccc3c(c2)C(=O)CC(C2CCN(S(=O)(=O)C4CCCC4)CC2)O3)cc1 (stereo not drawn)
13 | 3.64 | CCc1ccc(N(CC(C)C)S(=O)(=O)c2ccc3c(c2)C(=O)N(C2CCOCC2)C3)cc1
14 | 4.93 | CCc1ccc(N(CC(C)C)S(=O)(=O)c2ccc3c(c2)C(=O)CC(C(C)C2CCOCC2)O3)cc1 (stereo not drawn)
15 | 2.67 | CCc1ccc(NS(=O)(=O)c2ccc3c(c2)C(=O)CC(C2CCOCC2)O3)cc1 (stereo not drawn)
16 | 3.77 | CCc1ccc2c(c1)CC(C)CN2S(=O)(=O)c1ccc2c(c1)C(=O)CC(C1CCOCC1)O2 (stereo not drawn)
17 | 4.32 | CC(C)CN(Cc1ccccc1C(F)(F)F)S(=O)(=O)c1ccc2c(c1)C(=O)CC(C1CCOCC1)O2 (stereo not drawn)
18 | 3.44 | CC(C)CN(c1ccccc1F)S(=O)(=O)c1ccc2c(c1)C(=O)CC(C1CCOCC1)O2 (stereo not drawn)
19 | 6.09 | CCc1ccc(N(CC(C)C)S(=O)(=O)c2ccc3cc(OCC4CCOCC4)c(C(=O)OC)cc3c2)cc1
20 | 2.72 | CCc1ccc(N(C2COC2)S(=O)(=O)c2ccc3c(c2)C(=O)CC(C2CCOCC2)O3)cc1 (stereo not drawn)

Molecular target: T1, Nuclear receptor ROR-gamma (Homo sapiens, UniProt P51449)
T1 sequence (P51449 whole entry): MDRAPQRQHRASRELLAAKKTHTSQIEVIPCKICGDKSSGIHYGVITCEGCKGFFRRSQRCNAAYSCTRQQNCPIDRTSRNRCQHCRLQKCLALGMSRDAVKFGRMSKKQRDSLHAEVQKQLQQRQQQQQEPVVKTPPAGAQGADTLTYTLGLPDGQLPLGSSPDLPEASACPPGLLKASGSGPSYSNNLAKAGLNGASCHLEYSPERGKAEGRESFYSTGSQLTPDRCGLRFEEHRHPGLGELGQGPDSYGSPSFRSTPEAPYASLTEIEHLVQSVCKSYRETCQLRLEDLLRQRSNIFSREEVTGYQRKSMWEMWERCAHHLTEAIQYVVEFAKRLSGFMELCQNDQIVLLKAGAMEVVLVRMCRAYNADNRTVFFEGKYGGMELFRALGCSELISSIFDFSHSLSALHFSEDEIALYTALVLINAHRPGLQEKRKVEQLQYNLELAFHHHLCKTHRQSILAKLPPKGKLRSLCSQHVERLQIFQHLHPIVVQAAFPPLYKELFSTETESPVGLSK
Settings: not given

Row | IC50 [µM] | SMILES
21 | > 10 | CCc1ccc(N(CC(C)C)S(=O)(=O)c2ccc3c(c2)C(=O)CC(C2CCN(C(=O)OC(C)(C)C)CC2)O3)cc1 (stereo not drawn)
22 | > 10 | CCS(=O)(=O)c1ccc(CNS(=O)(=O)c2ccc3c(c2)C(=O)CC(C2CCOCC2)O3)nc1 (stereo not drawn)
23 | > 10 | CCc1ccc2c(c1)CC(C)CN2S(=O)(=O)c1ccc2c(c1)C(=O)CC(C1CCOCC1)O2 (stereo not drawn)
24 | > 10 | CCc1ccc(N(C2COC2)S(=O)(=O)c2ccc3c(c2)C(=O)CC(C2CCOCC2)O3)cc1 (stereo not drawn)

Molecular target: T1, Nuclear receptor ROR-gamma
Experiment: Displacement of BODIPY from APC-labelled RORgammat LBD (unknown origin) incubated for 1 hrs by binding assay
Settings: not given

Row | IC50 [µM] | SMILES
25 | > 10 | CCc1ccc(N(CC(C)C)S(=O)(=O)c2ccc3c(c2)C(=O)CC(C2CCN(C(=O)OC(C)(C)C)CC2)O3)cc1 (stereo not drawn)
26 | > 10 | CCS(=O)(=O)c1ccc(CNS(=O)(=O)c2ccc3c(c2)C(=O)CC(C2CCOCC2)O3)nc1 (stereo not drawn)
27 | > 10 | CCc1ccc2c(c1)CC(C)CN2S(=O)(=O)c1ccc2c(c1)C(=O)CC(C1CCOCC1)O2 (stereo not drawn)
28 | > 10 | CCc1ccc(N(C2COC2)S(=O)(=O)c2ccc3c(c2)C(=O)CC(C2CCOCC2)O3)cc1 (stereo not drawn)
